Experimental data as given in paper PMC8126888 (RSC Medicinal Chemistry, 2020).
Read-outs that look alike come from different tables or passages of the source.

Columns and labels:
in vitro [1] = conditions: Swiss, mouse
in vitro [2] = conditions: human, microsomes, pH 7.4, HLM CLint, human liver microsomes
[3] = system: Trypanosoma cruzi, Tulahuen CL2, beta-galactosidase strain; experiment: microbe, parasite or virus in culture; conditions: MRC5, read-out: T. cruzi Tulahuen C4 (LacZ) IC50
in vitro [4] = conditions: human
[5] = system: Leishmania infantum MHOM/MA(BE)/67/ITMAP263 intracellular amastigotes; experiment: microbe, parasite or virus in culture; conditions: Macrophage, in Mus musculus
[6] = system: primary peritoneal mouse macrophages (PMM); conditions: PMM IC50 / L. infantum IC50
physchem = conditions: HPLC, Ascentis Express RP Amide column, pH 7.4, eLogD
in vitro [7] = conditions: mouse, microsomes, pH 7.4, MLM CLint, mouse liver microsomes
[8] = read-out: L. Inf. pIC50, from L. infantum intracellular amastigote IC50 (converted)
[9] = read-out: L. infantum MHOM/MA(BE)/67/ITMAP263 intracellular amastigotes IC50

COc1ccc(OC)c(S(=O)(=O)N(C)Cc2ccc(F)cc2)c1 [DNDI0003366066] gave an IC50 (in vitro [1]) greater than 64 µM, a microsomal CLint at 0.5 μM (in vitro [2]) of 414 µL/min/mg and an IC50 [3] of 26.7 µM. It also gave a CC50 at 3 days (in vitro [4]) greater than 64 µM, an IC50 [5, 8] of 11.7 µM and an IC50 [5, 9] of 11.7 µM. The “SI (vs PMM)” value [6] was 5.
CCN(Cc1ccccc1)S(=O)(=O)c1ccccc1Br [DNDI0003365405] gave an IC50 (in vitro [1]) greater than 64 µM, a microsomal CLint at 0.5 μM (in vitro [2]) of 88 µL/min/mg and an IC50 [3] of 13.8 µM. The chromatographic logD (physchem) was 4.2, the CC50 at 3 days (in vitro [4]) was greater than 64 µM and the IC50 [5, 8] was 33.9 µM. For the same molecule, the IC50 [5, 9] was 33.9 µM, the “SI (vs PMM)” value [6] was 2 and the microsomal CLint at 0.5 μM (in vitro [7]) was 235 µL/min/mg.
With CONS(=O)(=O)c1cc(Cl)ccc1OC [DNDI0003364475] the IC50 (in vitro [1]) was greater than 64 µM, the IC50 [3] was greater than 64 µM and the CC50 at 3 days (in vitro [4]) was greater than 64 µM. For the same molecule, the IC50 [5, 8] was greater than 64 µM, the IC50 [5, 9] was greater than 64 µM and the “SI (vs PMM)” value [6] was 1.
For COc1ccc(OC)c(S(=O)(=O)N(Cc2ccc(F)cc2)Cc2ccc(F)cc2)c1 [DNDI0003366069], the IC50 (in vitro [1]) was greater than 64 µM, the IC50 [3] was 6.35 µM and the CC50 at 3 days (in vitro [4]) was greater than 64 µM. The IC50 [5, 8] was 0.537 µM, the IC50 [5, 9] was 0.54 µM and the “SI (vs PMM)” value [6] was 119.
CC(=O)Nc1ccc(S(=O)(=O)NCc2ccccc2)cc1 [DNDI0003366092] showed an IC50 (in vitro [1]) greater than 64 µM, an IC50 [3] greater than 64 µM and a CC50 at 3 days (in vitro [4]) greater than 64 µM. The IC50 [5, 8] was greater than 64 µM, the IC50 [5, 9] was greater than 64 µM and the “SI (vs PMM)” value [6] was 1.
COc1ccc(OC)c(S(=O)(=O)N(Cc2ccccc2)C2CCNCC2)c1 [DNDI0003366094] showed an IC50 (in vitro [1]) of 45.2 µM, a microsomal CLint at 0.5 μM (in vitro [2]) of 100 µL/min/mg and an IC50 [3] of 28.9 µM. The chromatographic logD (physchem) was 3.1, the CC50 at 3 days (in vitro [4]) was 42.2 µM and the IC50 [5, 8] was 27.5 µM. For the same molecule, the IC50 [5, 9] was 27.8 µM, the “SI (vs PMM)” value [6] was 2 and the microsomal CLint at 0.5 μM (in vitro [7]) was 23 µL/min/mg.
In the case of CCCCC(=O)Nc1cccnc1S(=O)(=O)CCOc1ccccc1 [DNDI0003363560], the IC50 (in vitro [1]) is reported as 32 µM, the IC50 [3] is reported as 14.7 µM and the CC50 at 3 days (in vitro [4]) is reported as 29.7 µM. For the same molecule, the IC50 [5, 8] was 32.4 µM, the IC50 [5, 9] was 32.5 µM and the “SI (vs PMM)” value [6] was 1.
In the case of Cc1cc(C)c(C#N)c(SCSc2nc(C)cc(C)c2C#N)n1 [DNDI0003297456], the IC50 (in vitro [1]) is reported as greater than 64 µM, the IC50 [3] is reported as greater than 64 µM and the CC50 at 3 days (in vitro [4]) is reported as greater than 64 µM. For the same molecule, the IC50 [5, 8] was greater than 64 µM, the IC50 [5, 9] was greater than 64 µM and the “SI (vs PMM)” value [6] was 1.
Molecule COCCN(C(C)=O)c1ccc(S(=O)(=O)N(CCOC)Cc2ccccc2)cc1 [DNDI0003366101] has an IC50 (in vitro [1]) greater than 64 µM, a microsomal CLint at 0.5 μM (in vitro [2]) of 73 µL/min/mg and an IC50 [3] greater than 64 µM. For the same molecule, the chromatographic logD (physchem) was 3.1, the CC50 at 3 days (in vitro [4]) was greater than 64 µM and the IC50 [5, 8] was greater than 64 µM. For the same molecule, the IC50 [5, 9] was greater than 64 µM, the “SI (vs PMM)” value [6] was 1 and the microsomal CLint at 0.5 μM (in vitro [7]) was 227 µL/min/mg.
COCCN(Cc1ccccc1)S(=O)(=O)c1cc(OC)ccc1OC [DNDI0003365566] gave an IC50 (in vitro [1]) greater than 64 µM, a microsomal CLint at 0.5 μM (in vitro [2]) of 253 µL/min/mg and an IC50 [3] of 32.8 µM. The CC50 at 3 days (in vitro [4]) was 39.4 µM, the IC50 [5, 8] was 2.09 µM and the IC50 [5, 9] was 2.07 µM. For the same molecule, the “SI (vs PMM)” value [6] was 31.
O=S(=O)(c1ccccc1OC(F)(F)F)N(Cc1ccccc1)Cc1ccccc1 [DNDI0003366074] gave an IC50 (in vitro [1]) of 32 µM, a microsomal CLint at 0.5 μM (in vitro [2]) of 93 µL/min/mg and an IC50 [3] of 6.3 µM. It also gave a CC50 at 3 days (in vitro [4]) greater than 64 µM, an IC50 [5, 8] of 1.07 µM and an IC50 [5, 9] of 1.08 µM. For the same molecule, the “SI (vs PMM)” value [6] was 30 and the microsomal CLint at 0.5 μM (in vitro [7]) was 689 µL/min/mg.
With COc1ccc(OC)c(S(=O)(=O)N(CCO)Cc2ccccc2)c1 [DNDI0003366067] the IC50 (in vitro [1]) was greater than 64 µM, the microsomal CLint at 0.5 μM (in vitro [2]) was 161 µL/min/mg and the IC50 [3] was 51.2 µM. It also gave a chromatographic logD (physchem) of 2.9, a CC50 at 3 days (in vitro [4]) greater than 64 µM and an IC50 [5, 8] of 52.5 µM. The IC50 [5, 9] was 52.5 µM and the “SI (vs PMM)” value [6] was 1.
With COc1ccc(Cl)cc1S(=O)(=O)NCCN(C)C [DNDI0003366089] the IC50 (in vitro [1]) was greater than 64 µM, the microsomal CLint at 0.5 μM (in vitro [2]) was 33 µL/min/mg and the IC50 [3] was greater than 64 µM. It also gave a chromatographic logD (physchem) of 2.1, a CC50 at 3 days (in vitro [4]) greater than 64 µM and an IC50 [5, 8] greater than 64 µM. For the same molecule, the IC50 [5, 9] was greater than 64 µM and the “SI (vs PMM)” value [6] was 1.
With CC/C(=C(\c1ccccc1)c1ccc(OCCN(C)C)cc1)c1ccccc1 [Tamoxifen, reference compound] the CC50 at 5 days (in vitro [1]) was 5 to 10 µM.
In the case of COc1ccc(Cl)cc1S(=O)(=O)N(Cc1ccccc1)Cc1ccccc1 [DNDI0003366072], the IC50 (in vitro [1]) is reported as greater than 64 µM, the microsomal CLint at 0.5 μM (in vitro [2]) is reported as 407 µL/min/mg and the IC50 [3] is reported as 8.16 µM. For the same molecule, the CC50 at 3 days (in vitro [4]) was greater than 64 µM, the IC50 [5, 8] was 1.38 µM and the IC50 [5, 9] was 1.37 µM. For the same molecule, the microsomal CLint at 0.5 μM (in vitro [7]) was 1350 µL/min/mg.
CCN(Cc1ccccc1)S(=O)(=O)c1cc(F)ccc1F [DNDI0003364474] showed an IC50 (in vitro [1]) greater than 64 µM, a microsomal CLint at 0.5 μM (in vitro [2]) of 205 µL/min/mg and an IC50 [3] of 30.1 µM. For the same molecule, the chromatographic logD (physchem) was 4.2, the CC50 at 3 days (in vitro [4]) was 45.2 µM and the IC50 [5, 8] was 33.9 µM. The IC50 [5, 9] was 33.9 µM, the “SI (vs PMM)” value [6] was 2 and the microsomal CLint at 0.5 μM (in vitro [7]) was 705 µL/min/mg.
COc1ccc(Cl)cc1S(=O)(=O)N(CCN(C)C)Cc1ccccc1 [DNDI0003366090] showed an IC50 (in vitro [1]) of 45.2 µM, a microsomal CLint at 0.5 μM (in vitro [2]) of 1190 µL/min/mg and an IC50 [3] of 32.7 µM. It also gave a chromatographic logD (physchem) of 4, a CC50 at 3 days (in vitro [4]) of 26.7 µM and an IC50 [5, 8] of 6.17 µM. The IC50 [5, 9] was 6.14 µM, the “SI (vs PMM)” value [6] was 7 and the microsomal CLint at 0.5 μM (in vitro [7]) was 120 µL/min/mg.
